From publication PMC9697198, “Carbonic Anhydrase Inhibition Activities of Schiff’s Bases Based on Quinazoline-Linked Benzenesulfonamide” (Molecules, 2022) come the findings set out here.

Where “and” joins values, the source holds several entries; their conditions need not be identical. Equal entries are not always repeated.

One data set concerns the target hCA I (Homo sapiens, UniProt P00915). Briefly: hCA I inhibition, stopped-flow assay. Type of data set: biochemical. The following applies: stopped-flow technique; mean from three different assays, errors ±5–10%.
In another data set the target is hCA II (Homo sapiens, UniProt P00918). The data set can be described thus: hCA II inhibition, stopped-flow assay. Type of data set: biochemical. The conditions noted are these: stopped-flow technique; mean from three different assays, errors ±5–10%.
For the next data set, the target named is hCA XII (Homo sapiens, UniProt O43570). The data set can be described thus: hCA XII inhibition, stopped-flow assay. The conditions noted are these: for Selectivity Analysis hCA II/XII / Selectivity Analysis hCA I/XII: selectivity index (SI); for Selectivity Analysis hCA II/XII: ratio of Ki hCA II to Ki hCA XII; for Selectivity Analysis hCA I/XII: ratio of Ki hCA I to Ki hCA XII; for Ki: stopped-flow technique, mean from three different assays, errors ±5–10%. Type of data set: biochemical.
hCA XII, sequence (O43570 25-354): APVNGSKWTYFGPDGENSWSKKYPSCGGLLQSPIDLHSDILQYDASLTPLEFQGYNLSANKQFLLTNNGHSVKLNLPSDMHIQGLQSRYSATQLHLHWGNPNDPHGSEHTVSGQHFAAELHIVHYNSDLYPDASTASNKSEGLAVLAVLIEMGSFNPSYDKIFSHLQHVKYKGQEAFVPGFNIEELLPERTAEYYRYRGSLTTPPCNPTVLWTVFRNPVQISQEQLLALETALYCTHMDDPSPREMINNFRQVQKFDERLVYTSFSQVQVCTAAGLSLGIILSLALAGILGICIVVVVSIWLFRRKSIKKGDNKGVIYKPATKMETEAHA

Another data set deals with hCA IX (Homo sapiens, UniProt Q16790). The data set can be described thus: hCA IX inhibition, stopped-flow assay. Type of data set: biochemical. The following applies: for Selectivity Analysis hCA I/IX / Selectivity Analysis hCA II/IX: selectivity index (SI); for Selectivity Analysis hCA I/IX: ratio of Ki hCA I to Ki hCA IX; for Selectivity Analysis hCA II/IX: ratio of Ki hCA II to Ki hCA IX; for Ki: stopped-flow technique, mean from three different assays, errors ±5–10%.

hCA I, sequence (P00915 whole entry): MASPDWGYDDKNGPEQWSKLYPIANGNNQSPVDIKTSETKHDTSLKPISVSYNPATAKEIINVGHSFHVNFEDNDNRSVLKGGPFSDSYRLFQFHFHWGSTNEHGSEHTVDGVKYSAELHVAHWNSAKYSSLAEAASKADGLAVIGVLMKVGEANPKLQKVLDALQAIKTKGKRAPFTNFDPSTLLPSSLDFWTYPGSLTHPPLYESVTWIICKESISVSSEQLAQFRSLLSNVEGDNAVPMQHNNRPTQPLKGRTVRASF

For the compound `NS(=O)(=O)c1ccc(CCn2c(S)nc3ccccc3c2=O)cc1` [Compound 1, 4-(2-(2-mercapto-4-oxoquinazolin-3(4H)-yl)ethyl)benzenesulfonamide], the figures for the Ki at hCA I and at hCA II were 31.5 nM and 0.62 nM, respectively.
`CCOC(=O)CSc1nc2ccccc2c(=O)n1CCc1ccc(S(N)(=O)=O)cc1` [Compound 2, Ethyl 2-((4-oxo-3-(4-sulfamoylphenethyl)-3,4-dihydroquinazolin-2-yl)thio)acetate] gave a melting point of 210 to 211 °C. Further, the “Selectivity Analysis hCA II/XII” value at hCA XII is listed as 0.61. This compound also registered a Ki on hCA II of 16.9 to 21.3 nM.
For `NNC(=O)CSc1nc2ccccc2c(=O)n1CCc1ccc(S(N)(=O)=O)cc1` [Compound 3, 4-(2-(2-((2-Hydrazineyl-2-oxoethyl)thio)-4-oxoquinazolin-3(4H)-yl)ethyl)benzenesulfonamide], the melting point was 253 to 254 °C. This compound had a Ki at hCA I of 87.6 nM. Moreover, at hCA XII, the “Selectivity Analysis hCA I/XII” value was 16.22; the “Selectivity Analysis hCA II/XII” value was 3.12; the affinity, expressed as Ki, was 5.4 nM. The same compound registered a Ki at hCA II of 16.9 nM. Besides, on hCA IX, the “Selectivity Analysis hCA I/IX” value is recorded as 1.68, the “Selectivity Analysis hCA II/IX” value amounted to 0.32 and the Ki was found to be 52.1 nM.
`NS(=O)(=O)c1ccc(CCn2c(SCC(=O)N/N=C/c3ccccc3)nc3ccccc3c2=O)cc1` [Compound 4, 4-(2-(2-((2-(2-Benzylidenehydrazineyl)-2-oxoethyl)thio)-4-oxoquinazolin-3(4H)-yl)ethyl)benzenesulfonamide] yielded a melting point of 296 to 298 °C. The same compound gave a Ki on hCA I of 152 nM. Affinity on hCA XII was put at a Ki of 38.4 nM. The same compound returned a Ki on hCA II of 52.6 nM. Also, the Ki on hCA IX stood at 61.7 nM.
For `NS(=O)(=O)c1ccc(CCn2c(SCC(=O)NN=Cc3ccccc3Cl)nc3ccccc3c2=O)cc1` [Compound 5, 4-(2-(2-((2-(2-(2-Chlorobenzylidene)hydrazineyl)-2-oxoethyl)thio)-4-oxoquinazolin-3(4H)-yl)ethyl)benzenesulfonamide], the melting point is 288 to 290 °C. Also, the affinity on hCA I, expressed as Ki, was 940 nM. On hCA XII, the “Selectivity Analysis hCA I/XII” value worked out at 20.39; the “Selectivity Analysis hCA II/XII” value is given as 5.45; the affinity, expressed as Ki, was 46.1 nM. At hCA II, this compound yielded a Ki of 251 nM. In addition, at hCA IX, the “Selectivity Analysis hCA I/IX” value is reported as 35.6, the “Selectivity Analysis hCA II/IX” value is on record as 9.51 and affinity was put at a Ki of 26.4 nM.
In the case of `NS(=O)(=O)c1ccc(CCn2c(SCC(=O)NN=Cc3ccc(Cl)cc3)nc3ccccc3c2=O)cc1` [Compound 6, 4-(2-(2-((2-(2-(4-Chlorobenzylidene)hydrazineyl)-2-oxoethyl)thio)-4-oxoquinazolin-3(4H)-yl)ethyl)benzenesulfonamide], the melting point lay in the range of 288 to 289 °C. Moreover, the Ki on hCA I was 568 nM. For the same compound, on hCA XII, the “Selectivity Analysis hCA I/XII” value was found to be 8.37, the “Selectivity Analysis hCA II/XII” value is 1.87 and the Ki stood at 67.8 nM. The compound further yielded a Ki at hCA II of 127 nM. Besides, at hCA IX, the “Selectivity Analysis hCA I/IX” value is recorded as 6.37; the “Selectivity Analysis hCA II/IX” value was 1.42; the Ki is 88.6 nM and 89.1 nM.
The compound `NS(=O)(=O)c1ccc(CCn2c(SCC(=O)NN=Cc3ccc(Cl)cc3Cl)nc3ccccc3c2=O)cc1` [Compound 7, 4-(2-(2-((2-(2-(2,4-Dichlorobenzylidene)hydrazineyl)-2-oxoethyl)thio)-4-oxoquinazolin-3(4H)-yl)ethyl)benzenesulfonamide] returned a melting point of 304 to 305 °C. Besides, at hCA I, the affinity, expressed as Ki, was 2350 nM. Besides, on hCA XII, the “Selectivity Analysis hCA I/XII” value stood at 26.33, the “Selectivity Analysis hCA II/XII” value is recorded as 4.84 and the Ki was determined as 89.4 nM. At hCA II, the Ki stood at 433 nM. In addition, at hCA IX, the “Selectivity Analysis hCA I/IX” value is 107, the “Selectivity Analysis hCA II/IX” value turned out to be 19.67 and the affinity corresponds to a Ki of 22 nM.
`NS(=O)(=O)c1ccc(CCn2c(SCC(=O)NN=Cc3ccc(Cl)c(Cl)c3)nc3ccccc3c2=O)cc1` [Compound 8, 4-(2-(2-((2-(2-(3,4-Dichlorobenzylidene)hydrazineyl)-2-oxoethyl)thio)-4-oxoquinazolin-3(4H)-yl)ethyl)benzenesulfonamide] showed a melting point of 271 to 272 °C. Also, affinity at hCA I was put at a Ki of 1830 nM. Also, on hCA XII, the “Selectivity Analysis hCA I/XII” value is listed as 28.81, the “Selectivity Analysis hCA II/XII” value is recorded as 5.12 and the Ki came out at 63.4 nM. For the same compound, on hCA II, the Ki stood at 325 nM. Further, on hCA IX, the “Selectivity Analysis hCA I/IX” value is given as 52.5, the “Selectivity Analysis hCA II/IX” value is 9.33 and the Ki came to 34.8 nM.
`NS(=O)(=O)c1ccc(CCn2c(SCC(=O)NN=Cc3c(Cl)cccc3Cl)nc3ccccc3c2=O)cc1` [Compound 9, 4-(2-(2-((2-(2-(2,6-Dichlorobenzylidene)hydrazineyl)-2-oxoethyl)thio)-4-oxoquinazolin-3(4H)-yl)ethyl)benzenesulfonamide] came in with a melting point of 296 to 297 °C. This compound also had a Ki on hCA I of 2260 nM. For the same compound, on hCA XII, the “Selectivity Analysis hCA I/XII” value came to 40.35, the “Selectivity Analysis hCA II/XII” value is given as 2.95 and the Ki was 55.9 nM. The affinity on hCA II corresponds to a Ki of 165 nM. On hCA IX, the “Selectivity Analysis hCA I/IX” value worked out at 45.85, the “Selectivity Analysis hCA II/IX” value was determined as 3.35 and the Ki stood at 49.2 nM.
With `NS(=O)(=O)c1ccc(CCn2c(SCC(=O)NN=Cc3ccccc3F)nc3ccccc3c2=O)cc1` [Compound 10, 4-(2-(2-((2-(2-(2-Fluorobenzylidene)hydrazineyl)-2-oxoethyl)thio)-4-oxoquinazolin-3(4H)-yl)ethyl)benzenesulfonamide], the melting point is 276 to 277 °C. Further, on hCA I, affinity was put at a Ki of 274 nM. For the same compound, on hCA XII, the “Selectivity Analysis hCA I/XII” value stood at 11.96, the “Selectivity Analysis hCA II/XII” value turned out to be 1.56 and the Ki was 22.9 nM. The same compound displayed a Ki on hCA II of 35.8 nM. Besides, at hCA IX, the “Selectivity Analysis hCA I/IX” value turned out to be 13.91, the “Selectivity Analysis hCA II/IX” value amounted to 1.81 and the Ki was 19.7 nM.
`NS(=O)(=O)c1ccc(CCn2c(SCC(=O)NN=Cc3ccc(F)cc3)nc3ccccc3c2=O)cc1` [Compound 11, 4-(2-(2-((2-(2-(4-Fluorobenzylidene)hydrazineyl)-2-oxoethyl)thio)-4-oxoquinazolin-3(4H)-yl)ethyl)benzenesulfonamide] yielded a melting point of 292 to 293 °C. At hCA I, this compound showed a Ki of 132 nM. Moreover, at hCA XII, the “Selectivity Analysis hCA I/XII” value was 8.35, the “Selectivity Analysis hCA II/XII” value is 3.13 and the Ki came out at 15.8 nM. On hCA II, this compound came in with a Ki of 49.5 nM. For the same compound, on hCA IX, the “Selectivity Analysis hCA I/IX” value was 8.57, the “Selectivity Analysis hCA II/IX” value worked out at 3.21 and the Ki is 15.4 nM.
In turn, `Cc1ccccc1C=NNC(=O)CSc1nc2ccccc2c(=O)n1CCc1ccc(S(N)(=O)=O)cc1` [Compound 12, 4-(2-(2-((2-(2-(2-Methylbenzylidene)hydrazineyl)-2-oxoethyl)thio)-4-oxoquinazolin-3(4H)-yl)ethyl)benzenesulfonamide] came in with a melting point of 239 to 240 °C. Further, the Ki at hCA I came out at 338 nM. In addition, at hCA XII, the “Selectivity Analysis hCA I/XII” value came out at 5.31, the “Selectivity Analysis hCA II/XII” value is listed as 1.09 and the Ki was 63.5 nM. This compound had a Ki at hCA II of 69.4 nM. At hCA IX, the “Selectivity Analysis hCA I/IX” value was determined as 11.41, the “Selectivity Analysis hCA II/IX” value was 2.34 and the Ki amounted to 29.6 nM.
In turn, `NS(=O)(=O)c1ccc(CCn2c(SCC(=O)NN=Cc3ccccc3[N+](=O)[O-])nc3ccccc3c2=O)cc1` [Compound 13, 4-(2-(2-((2-(2-(2-Nitrobenzylidene)hydrazineyl)-2-oxoethyl)thio)-4-oxoquinazolin-3(4H)-yl)ethyl)benzenesulfonamide] displayed a melting point of 288 to 289 °C. This compound had a Ki on hCA I of 992 nM. Moreover, on hCA XII, the “Selectivity Analysis hCA I/XII” value turned out to be 46.34, the “Selectivity Analysis hCA II/XII” value worked out at 26.60 and the Ki is 21.4 nM. Also, at hCA II, affinity was put at a Ki of 569 nM. For the same compound, on hCA IX, the “Selectivity Analysis hCA I/IX” value was determined as 16.95, the “Selectivity Analysis hCA II/IX” value turned out to be 9.73 and the Ki worked out at 58.5 nM.
`NS(=O)(=O)c1ccc(CCn2c(SCC(=O)NN=Cc3ccc([N+](=O)[O-])cc3)nc3ccccc3c2=O)cc1` [Compound 14, 4-(2-(2-((2-(2-(4-Nitrobenzylidene)hydrazineyl)-2-oxoethyl)thio)-4-oxoquinazolin-3(4H)-yl)ethyl)benzenesulfonamide] registered a melting point of 296 to 297 °C. On hCA I, this compound had a Ki of 635 nM. On hCA XII, the “Selectivity Analysis hCA I/XII” value was found to be 20.83, the “Selectivity Analysis hCA II/XII” value is listed as 7.23 and the Ki worked out at 30.5 nM. This compound yielded a Ki at hCA II of 221 nM. On hCA IX, the “Selectivity Analysis hCA I/IX” value is given as 23.62; the “Selectivity Analysis hCA II/IX” value was 8.20; the affinity, expressed as Ki, was 26.9 nM.
In turn, `CC(=NNC(=O)CSc1nc2ccccc2c(=O)n1CCc1ccc(S(N)(=O)=O)cc1)c1cccnc1` [Compound 27, 4-(2-(4-Oxo-2-((2-oxo-2-(2-(1-(pyridin-3-yl)ethylidene)hydrazineyl)ethyl)thio)quinazolin-3(4H)-yl)ethyl)benzenesulfonamide] had a Ki at hCA I of 238 nM. Also, at hCA XII, the “Selectivity Analysis hCA I/XII” value worked out at 6.87, the “Selectivity Analysis hCA II/XII” value is given as 0.31 and the Ki was found to be 34.7 nM. The compound also came in with a Ki at hCA II of 10.8 nM. At hCA IX, the “Selectivity Analysis hCA I/IX” value came out at 7.07, the “Selectivity Analysis hCA II/IX” value worked out at 0.32 and the Ki worked out at 33.7 nM.
